Consider six compounds from ChEMBL document CHEMBL4184172, “Isosteric ribavirin analogues: Synthesis and antiviral activities” (Bioorg Med Chem Lett, 2018).

SMILES strings stand for the structures. Values after ≈ are worked out from the molar mass of the structure shown. Active and inactive are the calls of the source. No cut-off for these calls is given here.

Data set [1] in a line: Cytotoxicity against pig SPEV cells by microscopic analysis. The data set is classed as cell-based, Sus scrofa.
The subject of a further data set is Hepatitis C virus. The data set is described as follows: Antiviral activity against Hepatitis C virus infected in pig SPEV cells assessed as protection against virus-induced cytopathic effect. The data set is classed as functional, organism-based, Hepacivirus hominis. On the technique in general: Damage to the host cells serves as the signal in cytopathic effect assays.

A further data set concerns Influenza A virus. The data set is described as follows: Antiviral activity against Influenza A virus H5N1 (A/duck/Novosibirsk/56/2005) infected in pig SPEV cells assessed as protection against virus-induced cytopathic effect. The data set is classed as functional, organism-based, Influenza A virus (A/duck/Novosibirsk/56/2005(H5N1)). The following applies: for Activity: Influenza A virus (A/duck/Novosibirsk/56/2005(H5N1)).

Data set [2] can be described thus: Cytotoxicity against African green monkey Vero E6 cells assessed as alterations in cell morphology by microscopic analysis. In kind it is cell-based, Vero C1008. The following applies: chlorocebus sabaeus.
The next data set deals with Vero C1008. Briefly: Cytotoxicity against African green monkey Vero E6 cells assessed as alterations in cell morphology at 1000 ug/ml by microscopic analysis. In kind it is cell-based. The following applies: chlorocebus sabaeus.
A short description of data set [3]: Cytotoxicity against pig SPEV cells at 150 ug/ml by microscopic analysis. The data set is classed as cell-based, Sus scrofa.
The test system of a further data set is Human alphaherpesvirus 1. The data set is described as follows: Antiviral activity against Human herpesvirus 1 L2 infected in African green monkey Vero E6 cells assessed as protection against virus-induced cytopathic effect. In kind it is functional, organism-based. The following applies: Human alphaherpesvirus 1, L2, Vero C1008.

Compound `NC(=O)c1ncn([C@@H]2O[C@H](CO)[C@@H](O)[C@H]2O)n1` [RIBAVIRIN] returned a cytotoxic concentration (CC50) in data set [1] of 75 µg/mL (≈ 307 µM). Also, the concentration for half-maximal inhibition (IC50) in the data set with Hepatitis C virus and in the data set on Influenza A virus was 12.5 µg/mL (≈ 51.2 µM) throughout.

As to `OC[C@H]1O[C@@H](n2cnc(-c3noc(-c4ccccc4)n3)n2)[C@H](O)[C@@H]1O`, the CC50 in data set [2] was 380 µg/mL (≈ 1100 µM). In addition, the IC50 with Hepatitis C virus was determined as 8.8 µg/mL (≈ 25.5 µM). In addition, the Activity result (with Vero C1008; in data set [3]) was “Non-Toxic” in each case.

For the compound `Cc1nc(-c2ncn([C@@H]3O[C@H](CO)[C@@H](O)[C@H]3O)n2)no1`, the Activity result (in the data set with Vero C1008; in data set [3]) was “Non-Toxic” throughout. In the data set with Influenza A virus, the IC50 was 50 µg/mL (≈ 177 µM).

For the compound `CC(C)c1nc(-c2ncn([C@@H]3O[C@H](CO)[C@@H](O)[C@H]3O)n2)no1`, the Activity entry (with Vero C1008; in data set [3]) was “Non-Toxic” in each case. For the same compound, the result in the data set on Influenza A virus was inactive.

As to `Cc1nc(-c2ncn([C@H]3C[C@H](O)[C@@H](CO)O3)n2)no1`, the Activity entry (in the data set with Vero C1008; in data set [3]) was “Non-Toxic” each time. Besides, in the data set with Influenza A virus, the result was inactive.

Consider `OC[C@H]1O[C@@H](n2cnc(-c3ncon3)n2)[C@H](O)[C@@H]1O`, for which, in the data set on Human alphaherpesvirus 1, the half-inhibitory concentration (IC50) came to 250 µg/mL (≈ 929 µM). Moreover, the Activity result (with Vero C1008; in data set [3]) was “Non-Toxic” each time.

One may read the CC50 as the concentration at which the toxic effect on the cells reaches its halfway point. The term IC50 denotes the concentration at which inhibition is half-maximal.
